# Experimental data taken from US10350256B2, “Compositions for the treatment of dermatological conditions, disorders or diseases” (Veit Hoermann Gesellschaft Für Unternehmenskommunikation mbH, priority 2012, dated 2019).
# Legend:
# Type in all cases: in vivo, human
# [1] = system: psoriasis vulgaris; assay: Case reports, treatment of psoriasis vulgaris; conditions: Patient H, inpatient treatment
# Excerpt: A patient suffering from psoriasis vulgaris affecting the whole body started a continuous treatment with black cumin oil for six months after several failed therapies with e.g. Daivobet gel.
# A patient suffering from suberythrodermic psoriasis vulgaris with iridocyclitis for 13 years received inpatient treatment to intensify therapy after exacerbation for two weeks and severe itching.
# Hyperkeratotic plaques were found between the fingers, discreet macerations between the toes, well defined, deeply red foci at the rima ani, and discreet redness at the penis. The psoriasis area and severity index (PASI) at admission was 36.
# During inpatient treatment a therapy with fumaric acid was started; the patient further received Ceterizin and Atarax. […] Local treatments included treatment with dithranol vaseline and kopflanette. Further, the whole integument received baths with soft soap and Balneum-Hermal F. The capillitium received Silix washing oil and betamethasone.
# The patient further used Curatoderm emulsion for the face. Intertrigines were treated with Candiohermal and Psorcutan ointment. The PASI at discharge was 14.7.
# The further medication after discharge from the hospital included fumaric acid, Loratadin, Psorcutan ointment, urea-containing ointment, and Curatoderm emulsions. […]
# [2] = system: psoriasis arthritis; assay: Case report, topical treatment of psoriasis arthritis; conditions: Patient D
# Excerpt: (§1) Various patients have been treated topically with one of the compositions of Example 1 (Recipe N) and Example 2 (Recipe P). These patients were therapy-refractory, i.e. the patients had already been treated with standard therapies to no avail. […] Since the patients had been suffering from their respective diseases for a long time, the treatment with the compositions of the present invention seems to be effective in all stages of the diseases.
# A patient suffering from psoriasis arthritis for more than 12 years received a treatment of the entire body with the composition of Example 2 (Recipe P). The composition was used regularly over two months in an amount of 150 g per day. The patient had already undergone several failed standard treatments, including cortisone treatment.
# [3] = system: atopic eczema; assay: Case reports, topical treatment of atopic eczema; conditions: Patient B, earlier conventional therapies
# Excerpt: as §1
# A patient suffering from atopic eczema for all their life received a continuous treatment of the affected body parts (elbows, neck, face, legs) over one month with the composition of Example 1 (Recipe N) in an amount of 1 to 10 grams in two treatments per day.
# A patient suffering from atopic eczema for more than 20 years received a treatment of the affected body parts (elbows, neck, face) with the composition of Example 1 (Recipe N) for two weeks in an amount of 3 grams in two treatments per day. […] The patient stated that they had never felt so good in 20 years.
# A patient suffering from atopic eczema from early childhood on, including dryness and severe itching of the affected areas of the skin, received treatment with olive oil two times a week for two months. […] Accordingly, the treatment was discontinued.
# A patient suffering from atopic eczema since birth received a continuous treatment with black cumin oil for two days.
Compound,itching under treatment [1],outcome of earlier standard treatments [2],outcome of earlier conventional therapy [3]
O=C(O)COCCN1CCN(C(c2ccccc2)c2ccc(Cl)cc2)CC1 (stereo not drawn) [Ceterizin],Itching remained,–,–
C[C@]12CCC(=O)C=C1CC[C@@H]1[C@@H]2C(=O)C[C@@]2(C)[C@H]1CC[C@]2(O)C(=O)CO [cortisone],–,failed,without any success
